Laboratory results: article PMC5007854, “β-Nitrostyrenes as Potential Anti-leishmanial Agents” (Frontiers in Microbiology, 2016)
≈ marks a conversion by molar mass, not a printed value. Like-named read-outs stand apart in the source and are kept apart here.

What was measured:
Format in all cases: cell-based
[1] = test system: Escherichia coli ATCC 25922; assay: Broth microdilution antibacterial susceptibility (MIC/MBC); conditions: Escherichia coli; for MIC: broth microdilution, 35°C, 24 h, read-out: MIC, Ec ATCC 25922; for MBC: ≥99.9% reduction of original inoculum, read-out: MBC, Ec ATCC 25922
Source text: (§1) One reference each of the following species was used for their in vitro susceptibility to β-nitrostyrene in this study: Staphylococcus aureus ATCC 29213, Staphylococcus epidermidis ATCC 14990, Escherichia coli ATCC 25922, Pseudomonas aeruginosa ATCC 27853, Candida albicans ATCC 90028, Candida glabrata ATCC 90030, Aspergillus fumigatus ATCC 16424 and Aspergillus niger ATCC 16404. These strains were procured from the American Type Culture Collection (ATCC, Manassas, VA, USA).
(§2) The antibacterial and antifungal activities of the β-nitrostyrenes were performed by broth microdilution methods as per the guidelines of Clinical and Laboratory Standard Institute (Wayne, [1998], [2008a],[b],[c]) by using Mueller-Hinton broth (MHB; Becton-Dickinson, Cockeysville, MD, USA) supplemented with calcium (25 mg/L) and magnesium (12.5 mg/L) for bacterial strains while as RPMI 1640 medium with L-glutamine and without sodium bicarbonate, buffered to pH 7.0 with 0.165 M 3-(N-morpholino) propanesulfonic acid (MOPS; both from Sigma) was used for fungal strains. Stock solutions were prepared in 100% dimethyl sulfoxide (DMSO; Sigma; distilled water was used for ciprofloxacin), with a final DMSO concentration of 1% (vol. per vol.) and two-fold serial dilutions were prepared in media in amounts of 100 μL per well in 96-well U-bottom microtiter plates (Tarsons, Kolkata, India) to yield twice the final concentration required for testing, which ranged from 64 to 0.12 μg/mL for β-nitrostyrenes and 16 to 0.03 μg/mL for ciprofloxacin as well as amphotericin B. Stock inoculum suspensions of the bacteria, Candida species and Aspergillus species were prepared in sterile normal saline (0.85%) containing 0.05% polysorbate 20 (NST) from overnight (3 to 5-day old for Aspergillus species) strains grown on Trypticase soy agar (TSA; Becton-Dickinson) and potato dextrose agar (Difco Laboratories, Detroit, MI, USA) respectively at 35°C. Inocula were verified for each assay by plating onto agar plates for colony enumeration. These suspensions were further diluted in the respective test medium and a 100 μl volume of this diluted inoculum was added to each well of the plate, resulting in a final inoculum concentration of approximately 5 × 10^5 CFU/mL for bacter1ia, (Wayne, [2008a]) approximately 2.5 × 10^4 CFU/ml for Candida species (Pfaller et al., [2004]) while as 0.4 × 10^4 to 5 × 10^4 CFU/mL for Aspergillus species (Wayne, [2008c]). Untreated growth control, vehicle control (DMSO) and sterility control wells were included for each isolate tested. Ciprofloxacin and amphotericin B served as the standard drug controls for bacterial and fungal strains, respectively. The microtiter plates were incubated at 35°C for 24 h for bacterial strains and 48 h for fungal strains. The plates were read visually and the minimum inhibitory concentration (MIC) was defined as the lowest concentration of test sample that prevented visible growth with respect to the growth control.
(§3) The minimum bactericidal concentration (MBC) and minimum fungicidal concentration (MFC) were determined by plating 100 μl volumes on agar plates from the wells showing no visible growth (clear MIC well). The plates were incubated as described above in MIC measurements. […] All experiments were conducted twice in duplicates on separate occasions with freshly prepared inoculums and stock solutions.

[2] = test system: Staphylococcus aureus ATCC 29213; assay: as above; conditions: for MIC / MBC: Staphylococcus aureus; for MIC: read-out: MIC, Sa ATCC 29213; for MBC: ≥99.9% reduction of original inoculum, read-out: MBC, Sa ATCC 29213
Source text: as §1, §2, §3

[3] = test system: Staphylococcus epidermidis ATCC 14990; assay: as above; conditions: for MIC / MBC: Staphylococcus epidermidis; for MIC: read-out: MIC, Se ATCC 14990; for MBC: ≥99.9% reduction of original inoculum, read-out: MBC, Se ATCC 14990
Source text: as §1, §2, §3

[4] = test system: Pseudomonas aeruginosa ATCC 27853; assay: as above; conditions: Pseudomonas aeruginosa; for MIC: broth microdilution, 35°C, 24 h, read-out: MIC, Pa ATCC 27853; for MBC: ≥99.9% reduction of original inoculum, read-out: MBC, Pa ATCC 27853
Source text: as §1, §2, §3

[5] = test system: Candida glabrata ATCC 90030; assay: Broth microdilution antifungal susceptibility (MIC/MFC); conditions: Nakaseomyces glabratus; for MIC: broth microdilution, 35°C, 48 h, read-out: MIC, Cg ATCC 90030; for MFC: ≥99.9% reduction of original inoculum, read-out: MFC, Cg ATCC 90030
Source text: as §1, §2, §3

[6] = test system: Aspergillus fumigatus ATCC 16424; assay: as above; conditions: Aspergillus fumigatus; for MIC: broth microdilution, 35°C, 48 h, read-out: MIC, Af ATCC 16424; for MFC: ≥99.9% reduction of original inoculum, read-out: MFC, Af ATCC 16424
Source text: as §1, §2, §3

[7] = test system: Aspergillus niger ATCC 16404; assay: as above; conditions: Aspergillus niger; for MIC: broth microdilution, 35°C, 48 h, read-out: MIC, An ATCC 16404; for MFC: ≥99.9% reduction of original inoculum, read-out: MFC, An ATCC 16404
Source text: as §1, §2, §3

[8] = test system: Candida albicans ATCC 90028; assay: as above; conditions: Candida albicans; for MIC: broth microdilution, 35°C, 48 h, read-out: MIC, Ca ATCC 90028; for MFC: ≥99.9% reduction of original inoculum, read-out: MFC, Ca ATCC 90028
Source text: as §1, §2, §3

[9] = ATCC29213, 24 h, broth microdilution, 35°C, 24 h
[10] = ATCC14990, 24 h, broth microdilution, 35°C, 24 h
[11] = broth microdilution, 35°C, 24 h

| Structure (SMILES) | MIC ([1]; ATCC25922, 24 h) [µg/mL] | MBC ([1]; ATCC25922) [µg/mL] | MIC [2, 9] [µg/mL] | MBC ([2]; ATCC29213) [µg/mL] | MIC [3, 10] [µg/mL] | MBC ([3]; ATCC14990) [µg/mL] | MIC ([4]; ATCC27853, 24 h) [µg/mL] | MBC ([4]; ATCC27853) [µg/mL] | MIC ([5]; ATCC90030, 48 h) [µg/mL] | MFC ([5]; ATCC90030) [µg/mL] | MIC ([6]; ATCC16424, 48 h) [µg/mL] | MFC ([6]; ATCC16424) [µg/mL] | MIC ([7]; ATCC16404, 48 h) [µg/mL] | MFC ([7]; ATCC16404) [µg/mL] | MIC ([8]; ATCC90028, 48 h) [µg/mL] | MFC ([8]; ATCC90028) [µg/mL] | also measured |
| --- | --- | --- | --- | --- | --- | --- | --- | --- | --- | --- | --- | --- | --- | --- | --- | --- | --- |
| O=C(O)c1cn(C2CC2)c2cc(N3CCNCC3)c(F)cc2c1=O [Cipro, Ciprofloxacin, reference compound] | < 0.03 | < 0.03 | 0.25 (≈ 0.754 µM) | 0.5 (≈ 1.51 µM) | 0.25 (≈ 0.754 µM) | 0.25 (≈ 0.754 µM) | 0.25 (≈ 0.754 µM) | 1 (≈ 3.02 µM) |  |  |  |  |  |  |  |  |  |
| O=[N+]([O-])/C=C/c1ccc(Cl)cc1 [Compound 1, 1-chloro-4-((E)-2-nitrovinyl) benzene] | 32 (≈ 174 µM) | 32 (≈ 174 µM) | 32 (≈ 174 µM) | 32 (≈ 174 µM) | 16 (≈ 87.1 µM) | 16 (≈ 87.1 µM) | 32 (≈ 174 µM) | 64 (≈ 349 µM) | 4 (≈ 21.8 µM) | 4 (≈ 21.8 µM) | 8 (≈ 43.6 µM) | 8 (≈ 43.6 µM) | 4 (≈ 21.8 µM) | 4 (≈ 21.8 µM) | 32 (≈ 174 µM) | 32 (≈ 174 µM) |  |
| C/C(=C\c1ccc(Cl)cc1)[N+](=O)[O-] [Compound 2, 1-chloro-4-((E)-2-nitroprop-1-enyl) benzene] |  | > 64 |  | > 64 |  | 32 (≈ 162 µM) |  | > 64 |  | 32 (≈ 162 µM) |  | > 64 |  | > 64 |  | > 64 | MIC ([5]; ATCC90030): 32 µg/mL (≈ 162 µM); MIC ([6]; ATCC16424): > 64 µg/mL; MIC ([7]; ATCC16404): 64 µg/mL (≈ 324 µM); MIC ([8]; ATCC90028): > 64 µg/mL; MIC ([1]; ATCC25922): > 64 µg/mL; MIC ([2]; ATCC29213, broth microdilution, 35°C, 24 h): > 64 µg/mL; MIC ([3]; ATCC14990, broth microdilution, 35°C, 24 h): 32 µg/mL (≈ 162 µM); MIC ([4]; ATCC27853): > 64 µg/mL |
| CC/C(=C\c1ccc(Cl)cc1)[N+](=O)[O-] [Compound 3, 1-chloro-4-((E)-2-nitrobut-1-enyl) benzene] |  | > 64 | 2 to 32 (≈ 9.45 to 151 µM) | 4 (≈ 18.9 µM) | 2 to 16 (≈ 9.45 to 75.6 µM) | 2 (≈ 9.45 µM) |  | > 64 |  | > 64 |  | 64 (≈ 302 µM) |  | 32 (≈ 151 µM) |  | > 64 | MIC, Sa ATCC 29213 [2, 11]: 4 µg/mL (≈ 18.9 µM); MIC, Se ATCC 14990 [3, 11]: 2 µg/mL (≈ 9.45 µM) |
| CN(C)c1ccc(/C=C/[N+](=O)[O-])cc1 [Compound 4, N,N-dimethyl-4-((E)-2-nitrovinyl) benzenamine] | > 64 | > 64 | > 64 | > 64 | > 64 | > 64 | > 64 | > 64 | 32 (≈ 166 µM) | 32 (≈ 166 µM) | 64 (≈ 333 µM) | > 64 | 64 (≈ 333 µM) | > 64 | > 64 | > 64 |  |
